Results on 15 molecules are retold here after ChEMBL document CHEMBL1143165, “N-[omega-[4-(2-methoxyphenyl)-1-piperazinyl]alkyl]-2-quinolinamines as high-affinity fluorescent 5-HT1A receptor ligands” (J Med Chem, 2008).

Active and inactive are the calls of the source. The calls are words filed in the database; no cut-off is given here.

Assay [1] deals with T1, 5-hydroxytryptamine receptor 1A (Homo sapiens, UniProt P08908).
T1 sequence (P08908 whole entry): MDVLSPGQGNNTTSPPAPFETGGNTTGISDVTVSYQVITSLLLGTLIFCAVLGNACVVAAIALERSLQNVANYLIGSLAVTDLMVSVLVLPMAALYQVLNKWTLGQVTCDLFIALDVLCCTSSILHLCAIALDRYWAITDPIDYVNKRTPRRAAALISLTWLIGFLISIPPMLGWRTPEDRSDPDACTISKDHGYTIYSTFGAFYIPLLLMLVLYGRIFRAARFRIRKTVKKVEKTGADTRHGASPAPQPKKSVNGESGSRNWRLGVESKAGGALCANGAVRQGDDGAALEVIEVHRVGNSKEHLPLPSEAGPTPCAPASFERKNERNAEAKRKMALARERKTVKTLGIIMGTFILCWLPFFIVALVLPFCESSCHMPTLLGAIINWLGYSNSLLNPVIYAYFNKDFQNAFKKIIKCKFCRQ
Nature of the assay: Displacement of [3H]8-OH-DPAT from human 5HT1A receptor expressed in HEK293 cells after 120 mins. It counts as cell-based. On the technique in general: Displacement assays read how much labelled ligand stays bound in the presence of the test substance.

Assay [2] is described as follows: Agonist activity at 5HT1A receptor in guinea pig ileum assessed as inhibition of electrically-stimulated muscle contraction. It counts as functional, tissue-based. The conditions noted are these: Cavia porcellus.
For assay [3], the species on record is Cavia porcellus. Nature of the assay: Reversal of agonist activity at 5HT1A receptor in guinea pig in presence of 5HT1A antagonist WAY-100635. It counts as functional.
Assay [4] can be described thus: Agonist activity at 5HT1A receptor in guinea pig ileum assessed as inhibition of electrically-stimulated muscle contraction relative to baseline. It is filed as functional, Cavia porcellus. On the set-up: scale not given: the % may be the effect or the level left.

`COc1ccc2ccc(NCCCN3CCN(c4ccccc4OC)CC3)nc2c1`: affinity in assay [1] was put at a Ki of 0.2 nM.

With `COc1ccccc1N1CCN(CCCNc2ccc3ccccc3n2)CC1`, in assay [1], the affinity corresponds to a Ki of 13 nM.

For the molecule `COc1ccccc1N1CCN(CCCCNc2ccc3ccccc3n2)CC1`, affinity in assay [1] was put at a Ki of 9.7 nM.

For `COc1ccc2nc(NCCCCN3CCN(c4ccccc4OC)CC3)ccc2c1`, the EC50 (as a rule, the concentration at which the effect is half-maximal) in assay [2] came out at 34400 nM. Besides, in assay [1], the Ki (as a rule, the equilibrium dissociation constant of an inhibitor or competing ligand from its target) came to 0.2 nM. Also, in assay [3], the result was Active.

`COc1ccccc1N1CCN(CCCCNc2ccc3cc(C)ccc3n2)CC1` had a Ki in assay [1] of 0.54 nM.

`COc1ccccc1N1CCN(CCCCCNc2ccc3ccccc3n2)CC1` came in with a Ki in assay [1] of 0.03 nM.

On to `COc1ccccc1N1CCN(CCCCNc2ccc3cc(N)ccc3n2)CC1`, for which the EC50 in assay [2] is 62100 nM. Moreover, the affinity in assay [1] corresponds to a Ki of 0.38 nM. Besides, the Activity in assay [4] amounted to 81%.

The molecule `COc1ccc2nc(NCCN3CCN(c4ccccc4OC)CC3)ccc2c1` gave a Ki in assay [1] of 28 nM.

In assay [1], `COc1ccccc1N1CCN(CCNc2ccc3cc([N+](=O)[O-])ccc3n2)CC1` returned a Ki of 14.2 nM.

The molecule `COc1ccc2ccc(NCCCCN3CCN(c4ccccc4OC)CC3)nc2c1` had a Ki in assay [1] of 4.6 nM.

Molecule `COc1ccc2nc(NCCCN3CCN(c4ccccc4OC)CC3)ccc2c1` had a Ki in assay [1] of 22 nM.

With `COc1ccc2ccc(NCCCCCN3CCN(c4ccccc4OC)CC3)nc2c1`, the Ki in assay [1] was 0.5 nM.

`COc1ccccc1N1CCN(CCNc2ccc3ccccc3n2)CC1`: the Ki in assay [1] is 33 nM.

In assay [1], `COc1ccc2nc(NCCCCCN3CCN(c4ccccc4OC)CC3)ccc2c1` came in with a Ki of 2.6 nM.

With `COc1ccc2ccc(NCCN3CCN(c4ccccc4OC)CC3)nc2c1`, in assay [1], the Ki turned out to be 2.1 nM.
